From patent US12049486B2, “PAC1 receptor agonists (MAXCAPs) and uses thereof” (priority 2017, dated 2024)
Where no end group is shown, it is not given here.

Test: Hepatic fat / liver cirrhosis, NASH/NAFLD by H&E staining in DIO WT mice
Format: in vivo
Settings: versus vehicle
Description: We have shown that these novel MAXCAP compounds, that are PAC1 specific agonists, can potentially treat Nonalcoholic steatohepatitis (NASH), non-alcoholic […] (NAFLD) and liver fibrosis. We injected these MAXCAP compounds in DIO WT mice and measured hepatic fat in the liver (see, e.g., FIG. 5).

Pituitary Adenylate Cyclase Activating Polypeptide (HSDGIFTDSYSRYRKQMAVKKYLAAVLGKRYKQRVKNK; ends and bridges not checked; listed as Homo sapiens) [PACAP, native peptide]
liver cirrhosis and NASH/NAFLD: significant reduction in liver cirrhosis and NASH/NAFLD
